Results on 3 compounds are retold here after patent publication US7820667B2, “Methods of treating hypertension” (Daiichi Sankyo Company, Limited, priority 2005, dated 2010).

One data set relates to rats. Description: Acute toxicity to rats. It counts as in vivo.
The conditions of data set [1]: as reported in Japanese Patent Public Disclosure No. 25323/84; cited from earlier work.
Data set [2] has as its system DOCA-salt hypertension rats. The data set can be described thus: Blood pressure by tail-cuff method in DOCA-salt hypertension rats. It counts as in vivo, Sprague-Dawley rats. Particulars: BH4 10 mg/kg b.w./day orally. On the procedure:
One kidney was removed from each of 8-week-old Sprague-Dawley rats (supplied from Charles River) except for a control group. […] Blood pressure was measured by the tail-cuff method at the start of experiment and 2, 4 and 5 weeks.

Data set [3] concerns DOCA-salt hypertension rats. The data set can be described thus: NO2/NO3 in urine (Griess method) in DOCA-salt hypertension rats. Particulars: BH4 10 mg/kg b.w./day orally. The format is in vivo, Sprague-Dawley rats. On the procedure:
One kidney was removed from each of 8-week-old Sprague-Dawley rats (supplied from Charles River) except for a control group. […] The measurement was carried out using Nitrate-Nitrite assay kit, (kit No. 780001, Cyman Chemical Company) according to the Griess method. The values of NO2/NO3 in urine means the activity of NOS, namely, higher the value, higher the activity.
On the technique in general: Griess reagent forms a coloured azo dye with nitrite.

Data set [4] relates to DOCA-salt hypertension rats. Description: Biopterin (BP) in urine by HPLC in DOCA-salt hypertension rats. As to conditions: BH4 10 mg/kg b.w./day orally. It counts as in vivo, Sprague-Dawley rats. The text has this:
(§1) One kidney was removed from each of 8-week-old Sprague-Dawley rats (supplied from Charles River) except for a control group.

The nature of data set [5]: Body weight of DOCA-salt hypertension rats. It counts as in vivo, Sprague-Dawley rats. Particulars: for Body weight: DOCA-salt hypertension rats, BH4 10 mg/kg b.w./day orally.
Excerpt: as §1

A further data set deals with endothelial NOS (e-NOS). Description: Immunostaining of renal tissue NOS (anti-e-NOS antibody). The format is in vivo, Sprague-Dawley rats. Particulars: renal tissues, DOCA-salt hypertension rats, BH4 10 mg/kg b.w./day orally, end of observation (5 weeks).
Excerpt: as §1
(§2) The expression of endothelial NOS (e-NOS) and brain NOS (b-NOS) in renal tissues was examined in the sections of the isolated frozen renal tissues by immunostaining with anti-e-NOS and anti-b-NOS antibodies (Affinity Bioreagents), respectively.

A further data set deals with brain NOS (b-NOS). Description: Immunostaining of renal tissue NOS (anti-b-NOS antibody). The format is in vivo, Sprague-Dawley rats. As to conditions: renal tissues, DOCA-salt hypertension rats, BH4 10 mg/kg b.w./day orally, end of observation (5 weeks).
Excerpt: as §1, §2

The test system of a further data set is e-NOS mRNA. Description: Measurement of NOS mRNA expression in renal tissues (RT-PCR, Southern hybridization). The format is in vivo, Sprague-Dawley rats. As to conditions: renal cortex, DOCA+BH4 group as compared with DOCA group, normalized against MDH, FIG. 4. On the procedure: as §1
Extraction of RNA from renal tissues was performed by the guanidium/cesium chloride extraction method.
Namely, a small amount of tissues collected from renal cortex of the isolated kidney was added immediately to a lysis solution 4M guanidinium thiocyanate and homogenized by a glass/Teflon homogenizer. This lysate was overlaid on 5.7M cesium chloride and centrifuged at 80,000 rpm for 2 hours, then the precipitate was dissolved in 0.1% diethyl pyrocarbonate (DEP) solution. This solution was precipitated with 2.5M ammonium acetate and ethanol at −20° C. for one hour and centrifuged at 10,000 rpm at 4° C. for 20 minutes to give a precipitate. […]
Specifically, the RT reaction solution was added to a mixture of 5′- and 3′-primers for each of e-NOS to be detected and for malate dehyadrogenase (MDH) used as an internal standard, PCR buffer, 2.5 mM dNTP mixed solution and Taq DNA polymerase. […]
PCR products were electrophoresed on 5% polyacrylamide gel and NOS mRNA expression was measured by Southern hybridization.
Specifically, the PCR reaction solution was electrophoresed on 5% polyacrylamide and then, the gel was transferred to membrane filters. […] Then, autoradiography was run at −70° C. for several hours and the exposed autoradiograms were analyzed by a densitometer. […]

In data set [6] the test system is DOCA-salt SHRs. Description: Blood pressure by tail-cuff method in DOCA-salt SHR. It counts as in vivo. As to conditions: BH4 10 mg/kg b.w./day orally. On the procedure:
Blood pressure was measured by the tail-cuff method at the start of experiments and after 2, 3, 4, 5 and 6 weeks.

The test system of data set [7] is DOCA-salt SHRs. The data set can be described thus: Histopathological findings in renal tissues of DOCA-salt SHR. The format is in vivo. The text has this:
After collecting urine and measuring blood pressure at 6 weeks, the animals was incised under anesthesia, exsanguinated from abdominal aorta and perfused with physiological saline via this site. The isolated kidney was fixed in a 10% formaldehyde solution, embedded in paraffin, then sliced to 4 μm in thickness by a microtome. Samples were stained with hematoxylin/eosin (HE) and periodic acid-Shiff. The incidences of histopathological findings on necrotizing glomerulitis and necrotizing arteriolitis were compared among the groups.

Data set [8] relates to DOCA-salt SHRs. As to conditions: in vivo, po, 10 mg/kg/day.
Procedure: One kidney was removed from 8-week old SHRs (supplied from Charles River) except for a control group. Then, the animals were divided into the following three experimental groups. • 1) A group given drinking water only (control group); sample size n=8; • 2) A group of DOCA-salt SHRs prepared by giving 30 mg/kg b.w. of deoxycorticosterone acetate (DOCA) subcutaneously once a week and 1% saline as drinking water from one week after nephrectomy (DOCA group); n 4; • 3) A group of DOCA-salt SHRs administered BH4 (10 mg/kg b.w./day) orally (DOCA+BH4 group); n=6.
Urine was collected for 24 hours using a metabolic cage at the start of experiment and after 2, 3, 4, 5 and 6 (at the termination of the observation period) weeks. At the termination of the observation period, blood sample was collected from abdominal aorta under anesthesia with Phenobarbital.
Biopterin (BP), a metabolite of BH4, was measured by a HPLC according to the procedure of Fukushima and Nixon. The effects of BH4 administration are evaluated on the basis of change of BP level in urine.
The measured values were expressed as means±standard error and evaluated statistically using two-way ANOVA test. In the following analyses, the significant level sets p<0.05.
Setting [9] is: until termination of observation period.
Setting [10] is: BH4 10 mg/kg b.w./day orally, kidney at 6 weeks.

`C[C@H](O)[C@H](O)[C@H]1CNc2[nH]c(N)nc(=O)c2N1.Cl.Cl` [BH4 dihydrochloride]: the acute toxicity result in the data set on rats was “more than 2 g/kg (b.w.)”.
Take `C[C@H](O)[C@H](O)C1CNc2nc(N)[nH]c(=O)c2N1` (stereo partly drawn) [(6R,S)-5,6,7,8-tetrahydrobiopterin]: the toxicity result in [1] is recorded as “only slightly toxic”.
With `CC(O)C(O)C1CNc2nc(N)[nH]c(=O)c2N1` [BH4, (6R)-L-erythro-5,6,7,8-tetrahydrobiopterin], the Blood pressure in data set [2] (Start) was 105.72 mmHg; in data set [2] (Week 2) it was 120.54 mmHg; in data set [2] (Week 4), 111.91 mmHg; in [2] (Week 5), 107.78 mmHg; in the data set on DOCA-salt SHRs [6] (Start) it was 130.22 mmHg; with DOCA-salt SHRs [6] (Week 2), 133.60 mmHg. In addition, the Blood pressure in the data set with DOCA-salt SHRs [6] (Week 3) is 143.63 mmHg; in the data set on DOCA-salt SHRs [6] (Week 4), 150.90 mmHg; in the data set with DOCA-salt SHRs [6] (Week 5), 159.30 mmHg; in the data set on DOCA-salt SHRs [6] (Week 6), 162.95 mmHg. Further, the entries for the “Change of blood pressure (in words)” value (in [2] (setting [9]); in the data set with DOCA-salt SHRs [6] (setting [9])) were “stayed at normal blood pressures” and “showed the same blood pressures level as that of the control group”, respectively. Also, the “Change of NO2/NO3 in urine (in words)” value in data set [3] is “showed an increase in the value”. In addition, the NO2/NO3 in urine is 2.22 ± 0.7 µmol/day in data set [3] (Start), 2 ± 0.55 µmol/day in [3] (Week 4) and 5.95 ± 1.9 µmol/day in [3] (Week 5). In addition, the “Change of BP in urine (in words)” value (in [4]; in the data set on DOCA-salt SHRs [8]) was “showed an increase in the value of BP with time” throughout. Besides, the Body weight is listed as 383.40 g in data set [5] (Start), 386.40 ± 12.84 g in data set [5] (Week 2), 431.20 ± 13.31 g in [5] (Week 4) and 446.80 ± 15.81 g in data set [5] (Week 5). Moreover, the “Body weight (in words)” value in [5] (control, DOCA and DOCA+BH4 groups compared) was “no significant difference”. Moreover, in the data set on endothelial NOS (e-NOS), the “expression of e-NOS in small vessels (immunostaining)” value is reported as “comparable to the control group or slightly enhanced”. Moreover, in the data set on brain NOS (b-NOS), the “expression of b-NOS in macula densa (immunostaining)” value is “comparable to the control group or slightly enhanced”. In addition, in the data set on e-NOS mRNA, the “expression of e-NOS mRNA” value is given as “significantly enhanced”. Moreover, in the data set with DOCA-salt SHRs [7] (setting [10]), the “Percentage (%) of incidences of histopathological findings in renal tissues: Necrotizing angiitis” value was 3.34 ± 0.94%. The “Percentage (%) of incidences of histopathological findings in renal tissues: Necrotizing glomerulitis” value in the data set with DOCA-salt SHRs [7] (setting [10]) worked out at 2.47 ± 1.07%. Further, the “Histopathological findings (in words)” value in the data set on DOCA-salt SHRs [7] (oral administration of BH4) is “remarkably improved histopathological findings”.
